# Patent publication US3935221A, “Substituted fusaric acid derivatives” (Banyu Pharmaceutical Co., Ltd., priority 1971, dated 1976)
# Like-named read-outs stand apart in the source and are kept apart here.
# Legend:
# Solubility = assay type: physicochemical; details: qualitative
# male mice (DBA) = experiment: Acute toxicity, LD50 of each drug in male mice (DBA); assay type: in vivo; details: male mice (DBA), summary statement
# Source text: (§1) In this invention, 10-monohalo-fusaric acid can be prepared by dissolving dehydrofusaric acid in water or other suitable organic solvent, if necessary, together with a suitable reagent for generating hydrogen halide. Hydrogen halide is then introduced or generated to effect the addition reaction. […] The halo-fusaric halide can be prepared by reacting halogenating agent such as thionylchloride, hydrochloride with halo-fusaric acid in a solvent. The solvent can be inert solvent or halogenating agent such as thionyl chloride. The ahlo-fusaric acid amides of the invention can be prepared from the halo-fusaric halide in a solvent by introducing ammonia gas or adding methylamine, dimethylamine, ethylamine, diethylamine, etc.. The halogenating agents used for preparing halo-fusaric halide can be thionylchloride, hydrochloride, phosphorus pentachloride and phosphorus oxychloride. The thionylchloride can be used without a solvent, however, it is usual to carry out the halogenation of halo-fusaric acid in a solvent such as chloroform, benzene, etc.. The halo-fusaric halide reacts with ammonia or a lower alkylamine in a solvent such as chloroform, benzene, etc.. The ahlo-fusaric acid amide can be prepared from halo-fusaric acid ester by reacting it with an alkylamine. The halo-fusaric acid ester can be prepared by reacting halo-fusaric acid with an alcohol in the presence of […]. The details of the preparation of the halo-fusaric acid can be understood from the description of the examples. The halo-fusaric acid amides of the invention are characterized by a significant anti-hypertensive effects and low toxicity. The followings are test results of anti-hypertensive effects and toxicities of the typical halo-fusaric acid amides of the invention. The anti-hypertensive effects of dibromo, monobromo, dichloro and monochloro fusaric acid amide, monomethylamide, dimethylamide were compared with those of dibromofusaric acid and fusaric acid. Blood pressure of spontaneously hypertensive rats (SHR) derived from the colony of SHR produced by selective inbreeding of a strain of Wistar rats (Okamoto and Aoki, Jap. Circul. J. 27:282-293, 1963) was measured indirectly in unanaesthesized rats plethysmographically (Williams et al, J. Clin. Invest. 18:373-376, 1939). Thirty percent depression of systolic blood pressure was defined to be significant and effective change. […] LD50 of each drug was obtained using male mice (DBA).
# [1] = as above; assay type: in vivo; details: mouse, in vivo
# Source text: as §1
# [2] = test system: spontaneously hypertensive rats (SHR); experiment: Antihypertensive action in spontaneously hypertensive rats, systolic blood pressure measured plethysmographically; assay type: in vivo, Wistar-derived); details: for ED50: Rattus norvegicus
# Source text: as §1
# dopamine-β-hydroxylase = details: prior art statement; cited from earlier work
# [3] = prior art statement; cited from earlier work
# [4] = ip, intraperitoneal, male mice (DBA), read-out: LD50 (mg/kg) Intraperitaneally
# [5] = oral, male mice (DBA), read-out: LD50 (mg/kg) Orally
# [6] = ip, read-out: ED50 (mg/kg) Intraperitoneally
# [7] = po, read-out: ED50 (mg/kg) Orally
# [8] = ip, antihypertensive action, intraperitoneal, SHR, 30% depression of systolic blood pressure defined as effective, read-out: ED50 (mg/kg) Intraperitoneally
# [9] = antihypertensive action, oral, SHR, 30% depression of systolic blood pressure defined as effective, read-out: ED50 (mg/kg) Orally
Compound,Solubility: insoluble (Solubility),Solubility: soluble (Solubility),toxicity (in words) (male mice (DBA)),"LD50 [1, 4] [mg/kg]","LD50 [1, 5] [mg/kg]","ED50 [2, 6] [mg/kg]","ED50 [2, 7] [mg/kg]","anti-hypertensive effects (in words) ([2]; SHR, summary statement)","ED50 [2, 8] [mg/kg]","ED50 [2, 9] [mg/kg]",LD50 ([1]; ip) [mg/kg],LD50 ([1]; po) [mg/kg],inhibition of the production of dopamine-β-hydroxylase (dopamine-β-hydroxylase),toxicity [3]
"CC(Br)CCc1ccc(C(=O)O)nc1 (stereo not shown) [10-bromo-fusaric acid, 5-(3-bromobutyl)picolinic acid]","insoluble in n-hexane, petroleum ether","soluble in alcohol, chloroform, acetone, benzene, ethylacetate, and is soluble in hot water but difficulty soluble in cold water",–,–,–,–,–,–,–,–,–,–,–,–
"NC(=O)c1ccc(CCC(Br)CBr)cn1 (stereo not shown) [Compound 1, 5-(3,4-Dibromobutyl)picolinamide]","Insoluble in water, ether","Soluble in alcohol, acetone, benzene, chloroform",the least toxic,1170,1860,1,1.6,the most effective drug for hypertension,–,–,–,–,–,–
"CC(Br)CCc1ccc(C(N)=O)nc1 (stereo not shown) [Compound 2, 5-(3-Bromobutyl)picolinamide]",–,–,–,633,1050,–,–,–,2,4,–,–,–,–
"CN(C)C(=O)c1ccc(CCC(Br)CBr)cn1 (stereo not shown) [Compound 3, N.N-Dimethyl-5-(3,4-dibromobutyl)picolinamide]",–,–,–,–,–,–,–,–,3,4,304,500,–,–
"NC(=O)c1ccc(CCC(Cl)CCl)cn1 (stereo not shown) [Compound 4, 5-(3,4-Dichlorobutyl)picolinamide]","Insoluble in water, ether","Soluble in methanol, acetone, benzene, chloroform",–,374,620,–,–,–,2,4,–,–,–,–
"CN(C)C(=O)c1ccc(CCC(Cl)CCl)cn1 (stereo not shown) [Compound 5, N.N-Dimethyl-5-(3,4-dichlorobutyl)picolinamide]",–,–,–,–,–,–,–,–,5,1.6,188,300,–,–
"O=C(O)c1ccc(CCC(Br)CBr)cn1 (stereo not shown) [Compound 6, 5-(3,4-dibromobutyl)picolinic acid, reference compound]",insoluble in cold water and petroleum ether,"soluble in alcohol, chloroform, benzene, ethylacetate, and hot water",–,132,180,–,–,–,3.2,4,–,–,–,–
"CCCCc1ccc(C(=O)O)nc1 [Compound 7, Fusaric acid]",–,–,–,110,130,3.5,4,–,–,–,–,–,inhibit the production of dopamine-β-hydroxylase,quite high in toxicity
